Marks after values point to notes of the source that are not given here.
Key:
HT-29 = assay: MTT tumor cell proliferation, HT-29; type: cell-based; conditions: Homo sapiens; HT-29, Colon cancer, 72 hour
Experimental: (§1) as an exemplary compound of formula (I), was tested for its inhibitory effect on tumor cell proliferation in a MTT assay.
(§2) Briefly, cells at the log phase were collected, suspended in the cell culture medium at 4*10^4/ml density, and plated in 96-well plates, 90 μl per well. The plates were kept in a 5% CO2 and 37° C. incubator for 2 hours, and then added with 100 μg/ml, 10 μg/ml, 1 μg/ml, 0.1 μg/ml, 0.01 μg/ml or 0.001 μg/ml Compound A, 4 replicates for each cell at each compound concentration. DMSO was used in the positive control group, and another negative group was also set. After 72 hour incubation in the same incubator, 20 μl 5 mg/ml MTT reagent was added to each well. After another 4 hour incubation, each well was added with 100 μl SDS and further incubated for 12 hours. Absorbance at 570 nm was read in a reader, and IC50 was calculated.

MV-4-11 cells = assay: MV-4-11 AML xenograft in mice (Example 7); type: in vivo, BALB-cA nude mice; conditions: D0-20; for Complete remission: number of mice, N 6
Experimental: Mice body weights and tumor sizes were measured twice a week. The tumor volume, T/C and TGI (Tumor growth inhibition=(average tumor volume in vehicle group-average tumor volume in administration group)/average tumor volume in vehicle group ×100%) were calculated. Mice were sacrificed on Day 21.

[1] = test system: Ls-174t human colon cancer cells; assay: Ls-174t colon cancer xenograft in mice; type: in vivo, BALB/cA-nude mice; conditions: for T/C: D14
From the text: Mice were sacrificed on Day-14.

KDR (VEGFR-2) = KDR (VEGFR-2) (Homo sapiens, UniProt P35968); assay: Inhibition of KDR phosphorylation; type: biochemical
From the text: (§3) FLT3 is a class III receptor tyrosine kinase and plays an important role in hematopoiesis and lymphocyte development. […] Wang et al found over 60% of 82 leukemia cell lines were FLT3 positive (Wang Y et al., (2006) Journal of Experimental Hematology 14(3): 446-449). FLT3-internal tandem duplication (ITD) is the most commonly seen mutation in AML patients, with about 17-34% of AML patients carrying such a mutation (Jia H et al., (2018) Medical Laboratory Science and Clinics 19(5): 39). […] Thus, the compounds of the disclosure with high inhibitory effect on FLT3 function may be good candidates for leukemia treatment.

[2] = test system: SGC-7901 human gastric cancer cells; assay: SGC-7901 gastric cancer xenograft in mice; conditions: D0, 3, 6, 9, 12; for T/C: D18
Experimental: Mice body weights and tumor sizes were measured 2 to 3 times a week. The tumor volume (V) was calculated as (length× width^2)/2. T/C (%) was calculated as (T-T0)/(C-C0)×100, wherein T and C represented the tumor volumes in the administration group and the vehicle group respectively at the end of the experiment, while T0 and C0 represented the tumor volumes in the administration group and the vehicle group respectively at the beginning of the experiment. And RTV was calculated as (Tumor volume at Day N/Tumor volume at Day 0).
BALB/cA-nude mice, 5-6 weeks old, purchased from Shanghai SLAC Laboratory Animal Co., Ltd, were subcutaneously inoculated with SGC-7901 human gastric cancer cells (from Cell Bank, Chinese Academy of Sciences).
Mice body weights and tumor sizes were measured 2 to 3 times a week. The tumor volume, T/C and RTV were calculated as described above. Mice were sacrificed on Day 18.

RS 4;11 = assay: MTT tumor cell proliferation, RS 4;11; type: cell-based; conditions: Homo sapiens, RS4-11; RS 4;11, Acute lymphocytic leukemia, 72 hour
Experimental: as §1, §2

H69 = assay: Tumor cell death by MTT, H69; type: cell-based, human; conditions: 20 nM
Experimental: The in vitro inhibitory effect of Compound A alone or in combination with a PARP inhibitor on tumor cell growth was tested using human small cell lung cancer (SCLC) cell lines, including H69 (ATCC® HTB-119™), H526 (ATCC® CRL-5811™) and H446 (TCHu196, National Collection of Authenticated Cell Cultures).
Briefly, the cells were seeded into a 96-well dish with RPMI-1640 (10-040-CV, Coming cellgro) containing 10% fetal bovine serum (10270-106, GIBCO), 1% penicillin and 1% streptomycin (BaSalMedia, S110JV), at an initial density of 3×10^3 cells per well ([…]), and cultured at a 37° C., 5% CO2 humidified incubator for 24 hours. Then, the culture media were added with Compound A (final concentration at 20 nM), olaparib (APEXBIO, A4154, a PARP inhibitor, final concentration at 10 μM), Compound A + olaparib (final concentrations at20 nM and 10 μM), or PBS (vehicle), respectively, and the cells were cultured for 48 hours. Then, cell viability was determined by MTT. The test was done in triplicate.
Cell death rate was calculated by the following formula.
Cell death rate=[1−(ODtest-ODvehicle)]×100%
Cell death rates were analyzed using student's t-test, and group differences were deemed statistically significant when the p-value was lower than 0.05. Zheng-Jun Jin's Q value was calculated using the formula Q=EA+B/(EA+EB-EA×EB) to assess the combined effect of Compound A and the PARP inhibitor, wherein EA+B, EA, and EB referred to the cell death rates caused by the combined treatment, Compound A treatment and PARP inhibitor treatment, respectively. A Q value higher than 1.15 meant a synergistic […] effect.
Another PARP inhibitor, rucaparib (APEXBIO, A4156), was tested alone or with Compound A for inhibitory effect on tumor cell growth, following the protocol of Example 9.

AKT = assay: Inhibition of AKT phosphorylation; type: biochemical
From the text: as §3

SGC-7901 = assay: MTT tumor cell proliferation, SGC-7901; type: cell-based; conditions: Homo sapiens; SGC-7901, Gastric cancer, 72 hour
Experimental: as §1, §2

PI3K γ isoform = PI3K γ isoform (Homo sapiens, UniProt P48736); assay: PI3K γ isoform inhibition; conditions: one of the other three isoforms
Sequence of PI3K γ isoform (P48736 whole entry, canonical isoform): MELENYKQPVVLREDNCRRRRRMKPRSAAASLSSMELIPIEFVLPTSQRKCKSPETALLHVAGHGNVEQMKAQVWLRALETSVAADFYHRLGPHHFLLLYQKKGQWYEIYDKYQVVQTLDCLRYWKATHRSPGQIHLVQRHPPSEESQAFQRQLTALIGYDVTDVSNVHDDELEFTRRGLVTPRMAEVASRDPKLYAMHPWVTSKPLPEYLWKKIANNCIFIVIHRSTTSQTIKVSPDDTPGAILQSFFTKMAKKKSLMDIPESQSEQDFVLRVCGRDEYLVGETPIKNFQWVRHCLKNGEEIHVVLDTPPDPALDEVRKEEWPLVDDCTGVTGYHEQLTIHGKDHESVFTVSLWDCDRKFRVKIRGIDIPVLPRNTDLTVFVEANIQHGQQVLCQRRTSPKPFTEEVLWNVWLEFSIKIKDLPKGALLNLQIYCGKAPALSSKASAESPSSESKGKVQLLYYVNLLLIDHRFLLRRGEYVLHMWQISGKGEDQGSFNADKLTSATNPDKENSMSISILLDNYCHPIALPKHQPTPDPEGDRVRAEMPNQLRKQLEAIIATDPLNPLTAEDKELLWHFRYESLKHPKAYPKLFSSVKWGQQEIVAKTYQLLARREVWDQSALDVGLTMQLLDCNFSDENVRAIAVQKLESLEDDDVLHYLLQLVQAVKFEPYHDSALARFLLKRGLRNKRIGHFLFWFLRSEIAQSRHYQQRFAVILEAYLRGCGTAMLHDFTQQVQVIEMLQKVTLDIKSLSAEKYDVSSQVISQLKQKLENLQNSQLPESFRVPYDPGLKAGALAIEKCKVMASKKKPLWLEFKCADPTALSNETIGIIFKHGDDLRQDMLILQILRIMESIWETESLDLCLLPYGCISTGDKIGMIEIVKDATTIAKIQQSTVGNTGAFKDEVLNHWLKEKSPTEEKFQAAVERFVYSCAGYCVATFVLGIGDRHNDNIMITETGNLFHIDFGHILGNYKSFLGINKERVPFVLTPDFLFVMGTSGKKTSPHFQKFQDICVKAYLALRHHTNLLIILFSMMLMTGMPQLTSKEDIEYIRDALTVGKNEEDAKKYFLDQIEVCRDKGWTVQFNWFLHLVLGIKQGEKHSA

Sequence of KDR (VEGFR-2) (P35968 20-1356, species assumed): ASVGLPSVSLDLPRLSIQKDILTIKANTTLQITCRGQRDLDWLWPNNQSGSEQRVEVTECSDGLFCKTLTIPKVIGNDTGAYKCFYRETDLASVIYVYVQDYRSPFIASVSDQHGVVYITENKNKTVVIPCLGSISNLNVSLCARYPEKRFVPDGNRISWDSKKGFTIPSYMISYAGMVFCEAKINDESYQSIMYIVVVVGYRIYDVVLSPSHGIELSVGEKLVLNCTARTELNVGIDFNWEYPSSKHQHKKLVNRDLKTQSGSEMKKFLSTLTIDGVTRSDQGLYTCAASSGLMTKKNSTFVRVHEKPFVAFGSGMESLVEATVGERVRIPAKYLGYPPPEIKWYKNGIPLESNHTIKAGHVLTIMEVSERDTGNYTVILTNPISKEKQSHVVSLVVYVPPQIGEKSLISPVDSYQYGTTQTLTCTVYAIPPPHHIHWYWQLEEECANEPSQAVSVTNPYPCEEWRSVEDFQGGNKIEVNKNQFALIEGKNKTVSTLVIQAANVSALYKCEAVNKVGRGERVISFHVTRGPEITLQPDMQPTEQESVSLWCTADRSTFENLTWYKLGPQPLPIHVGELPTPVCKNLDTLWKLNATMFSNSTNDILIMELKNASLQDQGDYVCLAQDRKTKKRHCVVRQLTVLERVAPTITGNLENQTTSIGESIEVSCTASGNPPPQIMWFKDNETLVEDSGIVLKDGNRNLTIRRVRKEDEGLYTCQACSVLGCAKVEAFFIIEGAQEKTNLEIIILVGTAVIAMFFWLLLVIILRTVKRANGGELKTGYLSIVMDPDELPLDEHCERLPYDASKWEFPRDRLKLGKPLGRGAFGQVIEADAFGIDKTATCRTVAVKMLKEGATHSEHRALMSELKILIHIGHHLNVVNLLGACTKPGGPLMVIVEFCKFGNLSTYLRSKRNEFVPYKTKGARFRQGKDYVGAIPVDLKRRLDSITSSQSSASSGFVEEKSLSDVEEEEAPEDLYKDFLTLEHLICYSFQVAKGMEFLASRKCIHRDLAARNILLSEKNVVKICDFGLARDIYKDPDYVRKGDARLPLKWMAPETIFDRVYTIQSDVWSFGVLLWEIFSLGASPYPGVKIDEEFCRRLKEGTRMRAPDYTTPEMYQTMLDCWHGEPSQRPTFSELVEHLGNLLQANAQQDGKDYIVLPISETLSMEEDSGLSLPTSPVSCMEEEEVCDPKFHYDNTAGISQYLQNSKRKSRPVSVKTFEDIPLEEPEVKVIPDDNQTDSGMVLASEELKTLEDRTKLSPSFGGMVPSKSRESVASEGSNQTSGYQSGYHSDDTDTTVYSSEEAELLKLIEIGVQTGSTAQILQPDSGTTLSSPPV

c1cnc2ccc(Nc3nc(NC4CC4)c4nc[nH]c4n3)cc2c1 [Compound A]
IC50 (HT-29): 6100 ± 200 nM
T/C (%) D21 (MV-4-11 cells; 30 mg/kg P.O.): 28%
TGI (%) D21 (MV-4-11 cells; 30 mg/kg P.O.): 72%
Tumor volume D0 (MV-4-11 cells; 30 mg/kg P.O.): 77.6 ± 3.4 mm^3
Tumor volume D21 (MV-4-11 cells; 30 mg/kg P.O.): 279.2 ± 71.8 mm^3
Complete remission (MV-4-11 cells; 30 mg/kg P.O.): 0
T/C (%) D21 (MV-4-11 cells; 60 mg/kg P.O.): 0%
TGI (%) D21 (MV-4-11 cells; 60 mg/kg P.O.): 100%
Tumor volume D0 (MV-4-11 cells; 60 mg/kg P.O.): 79.3 ± 2.6 mm^3
Tumor volume D21 (MV-4-11 cells; 60 mg/kg P.O.): 76.6 ± 46.2 mm^3
Complete remission (MV-4-11 cells; 60 mg/kg P.O.): 3
Body weight (without tumor) D0 ([1]; 25 mg/kg P.O., D0, 2, 4, 8, 10): 23.7 g
Body weight (without tumor) D14 ([1]; 25 mg/kg P.O., D0, 2, 4, 8, 10): 17.7 g
RTV at D14 ([1]; 25 mg/kg P.O., D0, 2, 4, 8, 10): 13.91 ± 2.39
Tumor volume D0 ([1]; 25 mg/kg P.O., D0, 2, 4, 8, 10): 145 ± 19 mm^3
Tumor volume D14 ([1]; 25 mg/kg P.O., D0, 2, 4, 8, 10): 1997 ± 316 mm^3
T/C ([1]; 25 mg/kg P.O., D0, 2, 4, 8, 10): 66%
Body weight (without tumor) D0 ([1]; 50 mg/kg P.O., D0, 3, 6, 9): 23.4 g
Body weight (without tumor) D14 ([1]; 50 mg/kg P.O., D0, 3, 6, 9): 16.2 g
RTV at D14 ([1]; 50 mg/kg P.O., D0, 3, 6, 9): 8.21 ± 3.55
Tumor volume D0 ([1]; 50 mg/kg P.O., D0, 3, 6, 9): 147 ± 22 mm^3
Tumor volume D14 ([1]; 50 mg/kg P.O., D0, 3, 6, 9): 1176 ± 450 mm^3
T/C ([1]; 50 mg/kg P.O., D0, 3, 6, 9): 38.9* %
Body weight (without tumor) D0 ([1]; 50 mg/kg P.O., D0, 4, 8): 23.3 g
Body weight (without tumor) D14 ([1]; 50 mg/kg P.O., D0, 4, 8): 16.9 g
RTV at D14 ([1]; 50 mg/kg P.O., D0, 4, 8): 10.25 ± 2.39
Tumor volume D0 ([1]; 50 mg/kg P.O., D0, 4, 8): 149 ± 29 mm^3
Tumor volume D14 ([1]; 50 mg/kg P.O., D0, 4, 8): 1497 ± 282 mm^3
T/C ([1]; 50 mg/kg P.O., D0, 4, 8): 48.6* %
EC50 (KDR (VEGFR-2)): ~1000 nM
RTV at D18 ([2]; 15 mg/kg P.O.): 5.57 ± 2.74
Tumor volume D0 ([2]; 15 mg/kg P.O.): 162 ± 32 mm^3
Tumor volume D18 ([2]; 15 mg/kg P.O.): 845 ± 349 mm^3
T/C ([2]; 15 mg/kg P.O.): 68.2%
RTV at D18 ([2]; 30 mg/kg P.O.): 3.73 ± 1.16
Tumor volume D0 ([2]; 30 mg/kg P.O.): 197 ± 45 mm^3
Tumor volume D18 ([2]; 30 mg/kg P.O.): 701 ± 142 mm^3
T/C ([2]; 30 mg/kg P.O.): 45.7* %
RTV at D18 ([2]; 60 mg/kg P.O.): 2.58 ± 1.07
Tumor volume D0 ([2]; 60 mg/kg P.O.): 215 ± 49 mm^3
Tumor volume D18 ([2]; 60 mg/kg P.O.): 545 ± 233 mm^3
T/C ([2]; 60 mg/kg P.O.): 31.6* %
IC50 (RS 4;11): 400 ± 100 nM
Cell Death Rate/% 1 (H69; 48 hours, Table 10): 6.75%
Cell Death Rate/% 2 (H69; 48 hours, Table 10): 6.48%
Cell Death Rate/% 3 (H69; 48 hours, Table 10): 6.31%
Cell Death Rate/% mean (H69; 48 hours, Table 10): 6.51%
Cell Death Rate/% 1 (H69; Example 10, Table 11): 7.36%
Cell Death Rate/% 2 (H69; Example 10, Table 11): 7.65%
Cell Death Rate/% 3 (H69; Example 10, Table 11): 7.02%
Cell Death Rate/% mean (H69; Example 10, Table 11): 7.34%
EC50 (AKT): ~100 nM
IC50 (SGC-7901): 3800 ± 600 nM
EC50, PI3K γ isoform (PI3K γ isoform): at the μM level

From patent US20230087844A1, “USE OF N2-QUINCLINE OR ISOQUINOLINE SUBSTITUTED PURINE DERIVATIVES IN CANCER TREATMENT” (SHANGHAI HUAYU BIOTECHNOLOGY CO., LTD., priority 2020, published 2023)
